According to patent US20240344095A1, “PROCESS FOR THE PRODUCTION OF MICROBIAL CELLULOSE USING WASTE TEXTILES” (Sanko Tekstil Isletmeleri San. Ve Tic. A.S., priority 2023, published 2024):

Test system: Gluconacetobacter hansenii ATCC 53582
Assay: Effect of additives in waste textile glucose medium on bacterial cellulose production
Type: cell-based
Conditions: 14 days
Method: The bacterial strain Gluconacetobacter hansenii ATCC 53582 was grown in 500 mL of waste textile glucose medium at an incubation temperature of 28° C.-30° C., for 14 days, in a close-lid plastic box. Different experiments were carried out to test the effect of the addition of different additives (TiBALDH, Glycerol, Ascorbic Acid) in different concentration on the production of bacterial cellulose. At the end of the incubation, the amount of the wet bacterial cellulose obtained was determined. Comparisons of wet bacterial amount change (%) in Table 2, 3, 4, and 5 are based on data in Table 1.

[1] = additives marked + at 0.5% Vitamin C, 1% Glycerol, 0.25% TiBALDH in WTG medium

Row | Molecule | Wet BC amount change (Glycerol Concentration 0.5 % in WTG medium, compared with Table 1) [%] | Wet BC amount change (Glycerol Concentration 1.0 % in WTG medium, compared with Table 1) [%] | Wet BC amount change (Glycerol Concentration 2.0 % in WTG medium, compared with Table 1) [%] | Wet BC amount change [1] [%] | Wet BC amount change (Vitamin C Concentration 0.25 % in WTG medium, compared with Table 1) [%] | Wet BC amount change (Vitamin C Concentration 0.50 % in WTG medium, compared with Table 1) [%] | Wet BC amount change (Vitamin C Concentration 1.00 % in WTG medium, compared with Table 1) [%] | Wet BC amount change (Vitamin C Concentration 2.00 % in WTG medium, compared with Table 1) [%] | Wet BC amount change (Vitamin C Concentration 3.00 % in WTG medium, compared with Table 1) [%] | Wet BC amount change (Vitamin C Concentration 4.00 % in WTG medium, compared with Table 1) [%] | Wet BC amount change (TiBALDH Concentration 0.0050 % in WTG medium, compared with Table 1) [%] | Wet BC amount change (TiBALDH Concentration 0.0250 % in WTG medium, compared with Table 1) [%] | Wet BC amount change (TiBALDH Concentration 0.0500 % in WTG medium, compared with Table 1) [%] | Wet BC amount change (TiBALDH Concentration 0.2500 % in WTG medium, compared with Table 1) [%] | Wet BC amount change (TiBALDH Concentration 0.5000 % in WTG medium, compared with Table 1) [%] | Wet BC amount change (TiBALDH Concentration 1.0000 % in WTG medium, compared with Table 1) [%]
1 | OCC(O)CO [Glycerol, glycerol] | 10.93 | 19.74 | 10.15 | 19.74 |  |  |  |  |  |  |  |  |  |  |  | 
2 | O=C1O[C@H]([C@@H](O)CO)C(O)=C1O [Vitamin C, ascorbic acid] |  |  |  | 9.25 | 6.75 | 9.25 | 8.13 | 6.95 | 5.57 | 2.96 |  |  |  |  |  | 
3 | Titanium (IV) bis-(ammonium lactato) dihydroxide [TiBALDH] |  |  |  | 55.30 |  |  |  |  |  |  | 7.04 | 18.10 | 24.13 | 55.30 | 17.10 | −26.79
